Here are results for four molecules from patent US10501462B2, “Pyrrolo[3,2-c]pyridine-6-amino derivatives” (CANCER RESEARCH TECHNOLOGY LIMITED, priority 2015, dated 2019).

In series [1] the test system is HCT116 cells. In words: MTT cell toxicity assay. The series is classed as cell-based. Particulars: Homo sapiens, HCT-116, 72 h incubation. Here is the method:
Cell proliferation assays were carried out using a colorimetric 3-(4,5-dimethylthiazol-2-yl)-2,5-diphenyltetrazolium bromide (MTT) assay (Sigma). 1.5×10^3 HCT116 cells, purchased from ATCC, were plated in 96-well plates at in 100 μL of culture medium in triplicates. Next day three fold dilutions of the compounds to be tested were made in culture medium so that, when diluted, the final concentration in the wells ranged from 0 to 10 μM. 25 μL of compounds dilutions in the medium was added to 100 μL of cells and incubated at 37° C. and 5% CO2 for 72 h. Cells were then incubated with 40 μL of 5 mg/mL MTT reagent at 37° C. for 3 h. The medium was carefully removed and crystals dissolved in 100 μL of DMSO. The absorbance was measured at 570 nm with the Wallac VICTOR2 1420 Multilabel Counter (PerkinElmer) and analysis performed to calculate the GI50 using GraphPad PRISM.

Series [2] addresses T1, full length Mps1 (Homo sapiens, UniProt P33981).
T1 construct: black 384-well low volume plates containing full length Mps1 (12.5 nM or 3 nM)
T1 sequence (P33981 1-857): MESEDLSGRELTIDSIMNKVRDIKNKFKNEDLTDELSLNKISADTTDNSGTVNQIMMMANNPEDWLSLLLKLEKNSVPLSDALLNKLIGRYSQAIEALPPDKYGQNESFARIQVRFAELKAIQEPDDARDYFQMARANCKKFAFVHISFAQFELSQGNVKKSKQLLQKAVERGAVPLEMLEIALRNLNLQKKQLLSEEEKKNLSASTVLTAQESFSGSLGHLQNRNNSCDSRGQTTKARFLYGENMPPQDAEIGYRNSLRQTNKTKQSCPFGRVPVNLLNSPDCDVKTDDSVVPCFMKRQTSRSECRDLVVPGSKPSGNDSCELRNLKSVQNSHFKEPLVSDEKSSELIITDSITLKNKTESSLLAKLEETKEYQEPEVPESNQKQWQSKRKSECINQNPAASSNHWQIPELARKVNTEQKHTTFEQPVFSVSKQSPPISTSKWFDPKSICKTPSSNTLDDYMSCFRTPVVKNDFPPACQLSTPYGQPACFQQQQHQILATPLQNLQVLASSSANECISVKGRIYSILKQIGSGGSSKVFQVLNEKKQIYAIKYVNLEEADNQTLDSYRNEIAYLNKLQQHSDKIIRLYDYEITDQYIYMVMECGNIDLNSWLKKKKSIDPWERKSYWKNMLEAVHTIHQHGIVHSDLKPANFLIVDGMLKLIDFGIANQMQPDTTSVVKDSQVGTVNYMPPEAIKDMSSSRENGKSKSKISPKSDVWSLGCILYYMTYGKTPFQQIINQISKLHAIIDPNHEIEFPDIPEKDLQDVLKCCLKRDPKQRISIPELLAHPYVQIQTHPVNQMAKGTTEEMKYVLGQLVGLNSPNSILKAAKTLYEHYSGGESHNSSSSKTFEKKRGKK
In words: Measurement of inhibition of Mps1 kinase (Caliper EZ reader, H236 peptide). Particulars: full length Mps1, 60 min at room temperature. The series is classed as biochemical. Here is the method:
The enzyme reaction (total volume 10 μl) was carried out in black 384-well low volume plates containing full length Mps1 (12.5 nM or 3 nM), fluorescent labelled peptide [known as H236, which has the sequence: 5FAM-[…]-CONH2] (5 μM), ATP ([…]), either DMSO (1% v/v) or the test compound (in the range 0.25 nM-100 μM in 1% DMSO) and assay buffer (50 mM HEPES (pH 7.0), 0.02% NaN3, 0.01% BSA, 0.1 mM Orthovandate, […], […], Roche protease inhibitor). The reaction was carried out for 60 min at room temperature and stopped by the addition of buffer (10 μl) containing 20 mM EDTA, 0.05% (v/v) Brij-35, in 0.1M HEPES-buffered saline (Free acid, Sigma, UK). The plate was read on a Caliper EZ reader II (Caliper Life Sciences).
The % inhibition of the compounds is calculated relative to the means of selected control wells. […] The % inhibitions at each concentration are then fitted to a 4 parameter logistic fit: y=(a+((b−a)/(1+((c/x^d)))) where a=asym min, b=asym max, c=IC50 and d=hill coefficient

Series [3] in a line: Human liver microsomal stability (HLM assay). The series is classed as in vitro ADME. The note with it: human liver microsomes 1 mg/mL, 10 μmol/L test compound, 37° C. Here is the method:
The human liver microsomal stability of the compounds of the invention was tested using the following procedure:
Mixed gender pooled human liver microsomes were purchased from Tebu-bio (Peterborough, U.K.). Samples contained final concentrations of 1 mg/mL microsomal protein, 3 mmol/L MgCl2, 1 mmol/L NADPH, 2.5 mmol/L, UDP-glucuronic acid, and 10 mmol/L phosphate buffer (pH 7.4) (all purchased from Sigma Aldrich, Gilingham, U.K). Reactions, at 37° C., were started by addition of 10 μmol/L test compound and were terminated at 0, 15 and 30 minutes by the addition of 3 volumes of ice-cold methanol containing internal standard. Samples were centrifuged at 2,800×g for 30 minutes at 4° C. and the supernatants analyzed. Control incubations were prepared as above with omission of cofactors. […]
(In general: Liver microsomes are vesicles of endoplasmic reticulum, rich in cytochrome P450 enzymes.)

Series [4] in a line: Pharmacokinetic profile in mice (Mouse PK). The series is classed as in vivo. Particulars: female, BALB/c, whole blood, 5 mg/kg, i.v. and p.o. at 5 mg/kg.
Experimental: The pharmacokinetic profile of the compounds of the invention was assessed using the following procedure:
Female BALB/c mice (approximately 8 weeks old) from Charles River UK Ltd. (Margate, United Kingdom) were kept in a controlled environment with food and sterilized water available ad libitum. Animals weighed 20±3 g at the time of experiment. Dosing solutions were prepared by dissolving the compounds in 10% DMSO, 5% Tween 20 and 85% saline. The compounds were administered i.v. and p.o. at 5 mg/kg. Animals were warmed before receiving a single i.v. bolus injection into a lateral tail vein. P.o. administration was by gavage. Control animals received the vehicle alone. Groups of three mice were injected per dose route. Blood was collected at 5, 15 and 30 minutes and at 1, 2, 4 and 6 and 24 hours by serial sampling from the tail vein of individual mice after warming using sodium heparin-coated capillaries and 20 μl blood spotted onto Whatman FTA DMPK-B cards.
Calibration standards and QCs were prepared in tail vein blood. 20 μl blood spotted onto Whatman FTA DMPK-B cards. When dry, all standard, QC and sample spots were punched with a Harris Unicore 6 mm punch and 200 μl of methanol containing internal standard was added. Samples were centrifuged for 5 minutes and supernatant taken for analysis by LC-MS. […]
Where [5] appears, read: read-out: GI50 in the MTT assay.
[6] abbreviates: read-out: MTT assay HCT116 GI50.

Read-outs that look alike come from different tables or passages of the source.

For the molecule `COc1cc(-c2nnnn2C)ccc1Nc1cc2c(cn1)cc(-c1cnn(C)c1)n2C(=O)OC(C)C` [Example 2, Isopropyl 6-(2-methoxy-4-(1-methyl-1H-tetrazol-5-yl)phenylamino)-2-(1-methyl-1H-pyrazol-4-yl)-1H-pyrrolo[3,2-c]pyridine-1-carboxylate], the results for the GI50 in series [1] (setting [5]) and in series [1] (setting [6]) were at most 150 nM and 104 nM, respectively. In addition, the IC50 in series [2] is 2.8 nM.

Take `Cn1cc(C2=[N+](C(=O)OC(C)(C)C)c3cc(Nc4ccc(-c5nncn5C)cc4Cl)ncc3C2)cn1` [Comparator 1, reference compound]: the “HLM Assay (% of parent compound degraded at 30 minutes)” value in series [3] came out at 22.1%. In addition, in series [1] (setting [6]), the GI50 is 360 nM. Further, the clearance in series [4] is 5 mL/min/kg.

On to `Cn1cc(C2=[N+](C(=O)OC(C)(C)C)c3cc(Nc4ccc(-c5ccnn5C)cc4Cl)ncc3C2)cn1` [Comparator 3, reference compound], for which the “HLM Assay (% of parent compound degraded at 30 minutes)” value in series [3] stood at 39%. The GI50 in series [1] (setting [6]) is 548 nM.

Take `COc1cc(-c2cnnn2C)ccc1Nc1cc2c(cn1)cc(-c1cnn(C)c1)n2C(=O)OC(C)C` [Example 1, Isopropyl 6-(2-methoxy-4-(1-methyl-1H-1,2,3-triazol-5-yl)phenylamino)-2-(1-methyl-1H-pyrazol-4-yl)-1H-pyrrolo[3,2-c]pyridine-1-carboxylate]: the GI50 in series [1] (setting [5]) was at most 150 nM; in series [1] (setting [6]), 59.4 nM. The molecule further returned an IC50 in series [2] of 1.2 nM. In series [4], the clearance is below 3.5 mL/min/kg.

A word on the GI50: it is the concentration that inhibits growth by half. As usually defined, the IC50 is the midpoint of a concentration-inhibition curve. The low end stands for greater potency, the high end for weaker potency.
